Measurements published in ChEMBL document CHEMBL1212786 (Antimicrob Agents Chemother, 2010).

Columns and labels:
[1] = Tmax in Sprague-Dawley rat at 10 mg/kg, po by LC/MS/MS analysis; format: ADME, organism-based; parameters: dose 10 mg/kg, route oral; details: in vivo
[2] = Cmax in Sprague-Dawley rat liver at 10 mg/kg, po by LC/MS/MS analysis; format: ADME, organism-based; parameters: dose 10 mg/kg, route oral
[3] = Cytotoxicity against human Huh7ET cells assessed as lactate dehydrogenase release up to 5 uM after 72 hrs; format: cell-based; details: huh-7, 72 h
[4] = Apparent volume of distribution in Sprague-Dawley rat at 2 mg/kg, iv after 24 hrs by LC/MS/MS analysis; format: ADME, organism-based; parameters: dose 2 mg/kg, route intravenous; details: in vivo, read-out: Vz
[5] = AUC (2 to 24 hrs) in Sprague-Dawley rat whole blood at 30 mg/kg, po by LC/MS/MS analysis; format: ADME, organism-based; parameters: time 2-24 hr, dose 30 mg/kg, route oral
Hepatitis C virus [6] = assay: microbe, parasite or virus in culture; details: Huh-7
Description: Antiviral activity against Hepatitis C virus infected in human Huh7ET cells assessed as suppression of full length viral RNA replication after 24 to 72 hrs by luciferase reporter gene assay

Hepatitis C virus [7] = assay: Antiviral activity against Hepatitis C virus infected in human Huh7ET cells assessed as inhibition of viral replication after 72 hrs by luciferase reporter gene assay; format: functional, organism-based
[8] = Systemic clearance in Sprague-Dawley rat at 2 mg/kg, iv after 24 hrs by LC/MS/MS analysis; format: ADME, organism-based; parameters: dose 2 mg/kg, route intravenous; details: in vivo
[9] = Systemic clearance in monkey at 1.4 mg/kg, iv after 24 hrs by LC/MS/MS analysis; format: ADME, organism-based, Macaca mulatta; parameters: dose 1.4 mg/kg, route intravenous; details: rhesus monkey, in vivo
[10] = Cmax in Sprague-Dawley rat liver at 30 mg/kg, po by LC/MS/MS analysis; format: ADME, organism-based; parameters: dose 30 mg/kg, route oral
Hepatitis C virus [11] = assay: microbe, parasite or virus in culture; details: Huh-7, 120 h
Description: Antiviral activity against Hepatitis C virus infected in human Huh7ET cells assessed as inhibition of viral replication after 120 hrs by luciferase reporter gene assay

[12] = Oral bioavailability in monkey at 7.5 mg/kg after 24 hrs by LC/MS/MS analysis; format: ADME, organism-based, Macaca mulatta; details: rhesus monkey, in vivo
Cytochrome P450 1A2 = biological target: T1, Cytochrome P450 1A2 (Homo sapiens, UniProt P05177); assay: Inhibition of human recombinant CYP1A2 after 30 mins; format: ADME
T1 sequence (P05177 whole entry): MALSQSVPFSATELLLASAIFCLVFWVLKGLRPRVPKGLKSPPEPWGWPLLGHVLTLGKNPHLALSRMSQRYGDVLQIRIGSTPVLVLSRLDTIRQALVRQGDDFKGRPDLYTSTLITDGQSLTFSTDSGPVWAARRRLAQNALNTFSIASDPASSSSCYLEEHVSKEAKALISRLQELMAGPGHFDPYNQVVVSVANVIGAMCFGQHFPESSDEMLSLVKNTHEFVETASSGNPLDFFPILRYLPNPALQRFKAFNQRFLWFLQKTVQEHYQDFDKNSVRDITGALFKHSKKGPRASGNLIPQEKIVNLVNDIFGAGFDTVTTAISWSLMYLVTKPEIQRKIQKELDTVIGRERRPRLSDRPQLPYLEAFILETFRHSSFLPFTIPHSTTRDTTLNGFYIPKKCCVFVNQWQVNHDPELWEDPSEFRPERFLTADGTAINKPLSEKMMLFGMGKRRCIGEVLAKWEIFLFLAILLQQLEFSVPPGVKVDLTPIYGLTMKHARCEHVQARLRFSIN

[13] = AUC (0 to infinity) in monkey at 5 mg/kg, po after 24 hrs by LC/MS/MS analysis; format: ADME, organism-based, Macaca mulatta; parameters: time infinity, dose 5 mg/kg, route oral; details: rhesus monkey, plasma
Liver microsomes = assay: Intrinsic clearance in human liver microsomes at 1 uM after 5 to 30 mins by MS analysis in presence of NADPH; format: ADME, Microsome
[14] = Oral bioavailability in monkey at 15 mg/kg after 24 hrs by LC/MS/MS analysis; format: ADME, organism-based, Macaca mulatta; details: rhesus monkey, in vivo
PBMC [15] = assay: Antiinflammatory activity in human PBMC assessed as inhibition of anti-CD3/CD28 antibody-induced IL-2 production treated for 1 hr before anti-CD3/CD28 antibody challenge measured after 6 hrs by immunosuppression assay; format: functional, cell-based; details: read-out: EC50
Hepatitis C virus [16] = assay: Antiviral activity against Hepatitis C virus infected in human Huh7ET cells assessed as inhibition of viral replication at 0.02 to 5 uM after 24 hrs by luciferase reporter gene assay; format: functional, Hepacivirus hominis, Huh-7
[17] = Apparent elimination half life Sprague-Dawley rat at 5 mg/kg, po after 24 hrs by LC/MS/MS analysis; format: ADME, organism-based; parameters: dose 5 mg/kg, route oral; details: in vivo
[18] = AUC (0 to infinity) in Sprague-Dawley rat at 10 mg/kg, po after 24 hrs by LC/MS/MS analysis; format: ADME, organism-based; parameters: time infinity, dose 10 mg/kg, route oral; details: plasma
[19] = Cytotoxicity against human Huh7ET cells assessed as lactate dehydrogenase release after 72 hrs; format: cell-based, Huh-7
[20] = Apparent elimination half life in monkey at 1.4 mg/kg, iv by LC/MS/MS analysis; format: ADME, organism-based, Macaca mulatta; parameters: dose 1.4 mg/kg, route intravenous; details: rhesus monkey, in vivo
Cytochrome P450 2C9 = Cytochrome P450 2C9 (Homo sapiens, UniProt P11712); assay: Inhibition of human recombinant CYP2C9 after 30 mins; format: ADME
[21] = Cmax in Sprague-Dawley rat whole blood at 10 mg/kg, iv by LC/MS/MS analysis; format: ADME, organism-based; parameters: dose 10 mg/kg, route intravenous
[22] = Cytotoxicity against human Huh7ET cells assessed as lactate dehydrogenase release up to 10 uM after 72 hrs; format: cell-based; details: huh-7, 72 h
[23] = Apparent elimination half life Sprague-Dawley rat at 20 mg/kg, po after 24 hrs by LC/MS/MS analysis; format: ADME, organism-based; parameters: dose 20 mg/kg, route oral; details: in vivo
Hepatitis C virus [24] = assay: microbe, parasite or virus in culture; details: Huh-7, 72 h
Hepatitis C virus [25] = assay: microbe, parasite or virus in culture; details: Huh-7, 48 h
Description: Antiviral activity against Hepatitis C virus infected in human Huh7ET cells assessed as inhibition of viral replication after 48 hrs by luciferase reporter gene assay

[26] = Oral bioavailability in monkey at 5 mg/kg after 24 hrs by LC/MS/MS analysis; format: ADME, organism-based, Macaca mulatta; details: rhesus monkey, in vivo
[27] = Tmax in Sprague-Dawley rat at 20 mg/kg, po by LC/MS/MS analysis; format: ADME, organism-based; parameters: dose 20 mg/kg, route oral; details: in vivo
Hepatitis C virus [28] = assay: microbe, parasite or virus in culture; details: Huh-7, 72 h; remark: listed apart in the source
Hepatocyte = assay: Cellular uptake in human hepatocytes assessed per mg of cellular protein association with nonparenchymal fraction at 2.27 uM after 1 hr by LC/MS/MS analysis; format: ADME, cell-based
[29] = Oral bioavailability in Sprague-Dawley rat at 20 mg/kg after 24 hrs by LC/MS/MS analysis; format: ADME, organism-based; details: in vivo
[30] = Half life in human liver microsomes at 1 uM after 5 to 30 mins by MS analysis in presence of NADPH; format: ADME, Microsome
PBMC [31] = assay: Cytotoxicity against human PBMC at 0.0031 uM after 18 hrs; format: cell-based
[32] = Cmax in Sprague-Dawley rat at 10 mg/kg, po after 24 hrs by LC/MS/MS analysis; format: ADME, organism-based; parameters: dose 10 mg/kg, route oral; details: in vivo
[33] = Cytotoxicity against human Huh7ET cells assessed as lactate dehydrogenase release up to 5 uM after 72 hrs in presence of 10 to 40% human serum; format: cell-based; details: huh-7, 72 h
[34] = Cmax in monkey at 7.5 mg/kg, po after 24 hrs by LC/MS/MS analysis; format: ADME, organism-based, Macaca mulatta; parameters: dose 7.5 mg/kg, route oral; details: rhesus monkey, in vivo
[35] = Cytotoxicity against human Huh7 cells assessed as lactate dehydrogenase release after 72 hrs; format: cell-based, Huh-7
[36] = Cmax in Sprague-Dawley rat liver at 10 mg/kg, iv by LC/MS/MS analysis; format: ADME, organism-based; parameters: dose 10 mg/kg, route intravenous
Cytochrome P450 2C19 = Cytochrome P450 2C19 (Homo sapiens, UniProt P33261); assay: Inhibition of human recombinant CYP2C19 after 30 mins; format: ADME
Cytochrome P450 2C19, sequence (P33261 whole entry): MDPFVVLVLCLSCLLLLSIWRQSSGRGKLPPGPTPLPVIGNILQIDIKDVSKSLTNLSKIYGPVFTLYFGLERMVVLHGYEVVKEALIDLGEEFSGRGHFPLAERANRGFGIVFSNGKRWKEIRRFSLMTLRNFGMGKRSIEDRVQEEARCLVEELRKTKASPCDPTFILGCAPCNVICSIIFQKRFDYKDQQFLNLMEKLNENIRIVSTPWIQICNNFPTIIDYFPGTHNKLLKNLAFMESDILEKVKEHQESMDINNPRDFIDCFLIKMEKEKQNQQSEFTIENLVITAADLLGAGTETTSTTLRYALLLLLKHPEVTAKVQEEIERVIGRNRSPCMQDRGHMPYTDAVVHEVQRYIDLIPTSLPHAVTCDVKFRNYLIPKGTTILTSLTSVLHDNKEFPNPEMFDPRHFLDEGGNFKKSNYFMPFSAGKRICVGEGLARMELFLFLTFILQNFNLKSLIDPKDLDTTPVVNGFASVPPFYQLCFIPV

Cytochrome P450 2C9, sequence (P11712 whole entry): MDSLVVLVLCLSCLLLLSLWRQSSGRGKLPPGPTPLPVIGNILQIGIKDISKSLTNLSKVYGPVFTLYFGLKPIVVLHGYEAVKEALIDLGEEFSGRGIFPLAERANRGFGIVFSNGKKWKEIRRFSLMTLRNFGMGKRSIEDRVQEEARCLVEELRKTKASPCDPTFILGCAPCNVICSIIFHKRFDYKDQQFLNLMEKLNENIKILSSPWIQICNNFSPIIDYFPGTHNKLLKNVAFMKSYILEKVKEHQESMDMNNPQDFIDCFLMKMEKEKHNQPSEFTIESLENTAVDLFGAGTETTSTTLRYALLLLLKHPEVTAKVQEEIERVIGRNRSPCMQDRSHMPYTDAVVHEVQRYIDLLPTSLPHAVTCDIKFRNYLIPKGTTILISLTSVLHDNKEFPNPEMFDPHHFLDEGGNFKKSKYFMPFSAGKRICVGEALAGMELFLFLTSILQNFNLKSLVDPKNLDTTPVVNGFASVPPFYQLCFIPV

Question: With `C/C=C/C[C@@H](C)[C@@H](O)[C@H]1C(=O)N[C@@H](CC)C(=O)N(C)C(SCCN(C)C)C(=O)N(C)[C@@H](CC(C)(C)O)C(=O)N[C@@H](C(C)C)C(=O)N(C)[C@@H](CC(C)C)C(=O)N[C@@H](C)C(=O)N[C@H](C)C(=O)N(C)[C@@H](CC(C)C)C(=O)N(C)[C@@H](CC(C)C)C(=O)N(C)[C@@H](C(C)C)C(=O)N1C` (single isomer, unassigned) [SCY 635] as the compound, how does the Tmax [1] read?
Answer: 8 h

Question: And the Cmax [2]?
Answer: 11100 ng/mL

Question: What about the Activity [3] of the same compound?
Answer: Non-toxic

Question: What about the Vd [4] of the same compound?
Answer: 3.37 L/kg

Question: And the AUC(0-t) [5]?
Answer: 30200 ng·h/mL

Question: What about the EC50 (Hepatitis C virus [6]) of the same compound?
Answer: 130 nM

Question: What about the Activity (Hepatitis C virus [7]; Hepacivirus hominis, Huh-7) of the same compound?
Answer: Dose-dependent effect

Question: What about the EC90 (Hepatitis C virus [7]; Huh-7, 72 h) of the same compound?
Answer: 350 nM

Question: And the clearance [8]?
Answer: 1.48 mL/min/kg

Question: What about the clearance [9] of the same compound?
Answer: 0.47 mL/min/kg

Question: What about the Cmax [10] of the same compound?
Answer: 16800 ng/mL

Question: What about the EC50 (Hepatitis C virus [11]) of the same compound?
Answer: 150 nM

Question: What about the bioavailability [12] of the same compound?
Answer: 15.7%

Question: And the IC50 (Cytochrome P450 1A2)?
Answer: > 100000 nM

Question: And the AUC(0-inf) [13]?
Answer: 27900 ng·h/mL

Question: And the clearance (Liver microsomes)?
Answer: 14 µL/min/mg

Question: What about the bioavailability [14] of the same compound?
Answer: 11.1%

Question: What about the EC50 (PBMC [15]) of the same compound?
Answer: 5300 nM

Question: And the “inhibition (INH)” value (Hepatitis C virus [16])?
Answer: 70%

Question: What about the half-life [17] of the same compound?
Answer: 19.2 h

Question: And the AUC(0-inf) [18]?
Answer: 26500 ng·h/mL

Question: And the CC50 at 72 h [19]?
Answer: 14200 nM

Question: What about the half-life [20] of the same compound?
Answer: 42.2 h

Question: What about the IC50 (Cytochrome P450 2C9) of the same compound?
Answer: 13400 nM

Question: What about the Cmax [21] of the same compound?
Answer: 3360 ng/mL

Question: And the Activity [22]?
Answer: Non-toxic

Question: And the half-life [23]?
Answer: 23.8 h

Question: What about the EC50 (Hepatitis C virus [24]) of the same compound?
Answer: 120 nM

Question: What about the EC50 (Hepatitis C virus [25]) of the same compound?
Answer: 70 nM

Question: And the bioavailability [26]?
Answer: 17.7%

Question: What about the Tmax [27] of the same compound?
Answer: 4 h

Question: What about the EC50 (Hepatitis C virus [28]) of the same compound?
Answer: 110 nM

Question: What about the Drug uptake (Hepatocyte) of the same compound?
Answer: 3.16 ng/mg

Question: What about the bioavailability [29] of the same compound?
Answer: 18.9%

Question: What about the half-life at 1 µM [30] of the same compound?
Answer: 1.05 h

Question: And the Activity (PBMC [31])?
Answer: Non-toxic

Question: What about the Cmax [32] of the same compound?
Answer: 1400 ng/mL

Question: And the Activity [33]?
Answer: Non-toxic

Question: What about the Cmax [34] of the same compound?
Answer: 1930 ng/mL

Question: And the CC50 at 72 h [35]?
Answer: 13700 nM

Question: And the Cmax [36]?
Answer: 13500 ng/mL

Question: And the IC50 (Cytochrome P450 2C19)?
Answer: 12400 nM
